Assay results from patent US20220372013A2, “PIPERIDINE-2,6-DIONE DERIVATIVES AND CROHN'S DISEASE TREATING” (Tianjin Hemay Pharmaceutical Sci-Tech Co., Ltd, priority 2016, published 2022).
Marks after values point to notes of the source that are not given here.

Assays:
Crohn's disease = settings: C. Yang et, Aliment Pharmacol Ther 2015; cited from earlier work
[1] = tested on: DNBS-Induced Inflammatory Bowel Disease Models in Rats; experiment: Biological Example 1: DNBS-induced inflammatory bowel disease models in rats; assay type: in vivo, Wistar rats
Protocol: Wistar rats, male, body weight of 100-120 g.
90 male Wistar rats were fasted for 40 hours. A 5% glucose injection was administered subcutaneously during fasting. 60 rats with normal conditions and moderate body weight were selected from the fasting rats. The animals were randomly divided into 6 groups according to the body weight: normal control group, model control group, sulfasalazine group (300 mg/Kg), and the compound in Example 27 groups consisting of 5, 15 and 30 mg/Kg dose groups. There were 10 rats in each group. The animals were anesthetized with ether. A specially made gavage device (made by a rat gavage device having the diameter of 2 mm, which was nested on a mouse gavage device having the diameter of 1 mm) was slowly inserted into the enteric cavity at 8 cm from the anus. The model control group, the sulfasalazine group and the compound in Example 27 groups were administered with 0.5 mL of 50 mg/mL DNBS in 30% ethanol solution. The normal control group was administered with 0.5 mL of 30% ethanol solution. The animals were inverted in anesthesia for 15 minutes after the gavage device was removed. The day when the model was prepared was the first day of the experiment. After 4 hours of DNBS induction, the corresponding drug or the corresponding volume of 1% CMC-Na was administered once per day. The body weights were recorded and the stool characteristics were scored. On the sixth day of the experiment colon tissues were taken from the animals to observe the results of each index.
The compound in Example 27 and sulfasalazine: Preparation Method: Suspended with 1% CMC-Na, and prepared when it was needed.
Animals were euthanized on the sixth day of the experiment to observe the results of each index. After the animals were sacrificed, colons were obtained. The adhesion degree of colon was observed and the length of the colon was measured. The ulcer area was calculated after removing the contents in the colon and the weight of the colon tissue was weighed. The colon tissue was longitudinally divided into two parts. One part of the colon tissue was fixed in 10% formalin solution for later use. The other part of the colon tissue was put into the liquid nitrogen to quickly frozen, and then was reserved at −80° C. for the detection of MPO.
Calculation method for ulcer area: length of ulcer point (cm)×width of ulcer point (cm).
The frozen tissue was ground into powder in liquid nitrogen. An appropriate amount of the powder was weighed and was added into 50 mM potassium phosphate solution (containing 0.5% cetyltrimethylammonium bromide) to give a 25 mg/mL solution. The resultant solution was homogenized by an electric homogenizer. 1 mL of suspension was centrifuged to give a supernatant. 7 μL of the supernatant was added into a 96-well plate and 200 μL of o-dianisidine mixture (containing 0.167 mg/mL o-dianisidine and 0.0006% H2O2 potassium phosphate buffer). OD values of the resultant solution at 0, 30, 60, and 90 s were detected at 450 nm of the microplate reader.
Test for homogeneity of variance was performed with Spss13.0. Where variance of data was homogeneous (P>0.05), one-way ANOVA LSD test was performed. Where the analysis of variance was significant (P<0.05), then Dunnett's multiple comparison (parameter method) or Kruskal-Wallis non-parametric test was performed. Where the results of Kruskal-Wallis non-parametric test were significant (P<0.05), the Mann-Whitney U test was performed for pairwise comparison.

[2] = tested on: DNBS-Induced Inflammatory Bowel Disease Models in Rats; experiment: Biological Example 2: DNBS-induced inflammatory bowel disease models in rats; assay type: in vivo, Wistar rats; settings: for Adhesion Degree / Colon Length / Colon Weight / Ulcer Area: sixth day, Mean ± SD; for growth rate of the body weight (in words): fourth day of the experiment, compared with model control group, doses as in Table 7
Protocol: 110 male Wistar rats were fasted for 40 hours. A 5% glucose injection (10 mL/Kg) was administered subcutaneously during fasting. 48 rats with normal conditions and moderate body weight were selected from the fasting rats. The animals were randomly divided into […] according to the body weight: normal control group, model control group, sulfasalazine group (300 mg/Kg), dexamethasone group (0.1 mg/Kg), the compound in Example 26 group (30 mg/kg) and the compound in Example 27 group (30 mg/kg), with 8 rats in each group. The animals were anesthetized with isoflurane. A specially made gavage device (made by a rat gavage device having the diameter of 2 mm, which was nested on a mouse gavage device having the diameter of 1 mm) was slowly inserted into the enteric cavity at 8 cm from the anus. The model control group, the compound in Example 26 group and the compound in Example 27 group were administered with 0.5 mL of 50 mg/mL DNBS in 30% ethanol solution. The normal control group was administered with 0.5 mL of 30% ethanol solution. The animals were inverted in anesthesia for 15 minutes after the gavage device was removed. The day when the model was prepared was the first day of the experiment. After 4 hours of DNBS induction, the corresponding drug or the corresponding volume of 1% CMC-Na was administered once per day. On the sixth day of the experiment, the animals were euthanized to observe the results of each index so as to score the colon adhesion degree, measure the length of colon and ulcer area, weigh colon and calculate the colon weight to length ratio.
The compound in Example 26 and Example 27, sulfasalazine and dexamethasone: Preparation Method: Suspended with 1% CMC-Na, and prepared when it was needed.
Levene's Test for homogeneity of data was performed with Spss. Where the data were homogeneous (P>0.05), one-way ANOVA LSD test was performed. Where the analysis of variance was significant (P≤0.05), Dunnett's multiple comparison (parameter method) was performed. Where the results of Levene's Test were significant (P≤0.05), Kruskal-Wallis nonparametric test was performed. Where the results of Kruskal-Wallis nonparametric test were significant (P≤0.05), Mann-Whitney U test was performed for pairwise comparison.

mice = experiment: Biological Example 5: acute toxicity experiment of single oral administration in mice; assay type: in vivo; settings: single oral 1000 mg/Kg, Mean ± SD
Outline: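 Fasted ICR mice (19-21 g, three females and three males per group) received a single oral dose of 1000 mg/Kg, given first to one mouse of each sex and then to the remaining four. Behaviour, nervous and autonomic signs, and deaths were recorded over 0-15 min. Animals were then observed for 7 days with daily body weight.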

[3] = 300 mg/Kg i.g. qd × 6, sixth day, Mean ± SD

Nc1cccc2c1CN(C1CCC(=O)NC1=O)C2=O (stereo not drawn) [lenalidomide]
effectiveness in the treatment of Crohn's disease (in words) (Crohn's disease): not effective

O=C1CCC(N2C(=O)c3ccccc3C2=O)C(=O)N1 (stereo not drawn) [thalidomide]
effectiveness in the treatment of Crohn's disease (in words) (Crohn's disease): not effective

O=C(O)c1cc(/N=N/c2ccc(S(=O)(=O)Nc3ccccn3)cc2)ccc1O [Sulfasalazine, sulfasalazine, reference compound]
Adhesion Degree [1, 3]: 0.2 ± 0.4 Point | Colon MPO Activity [1, 3]: 26.0 ± 14.8 U/mg | Colon Weight [1, 3]: 1794.9 ± 242.3 mg | Colon weight to length ratio [1, 3]: 140.6 ± 27.9 mg/cm | Ulcer Area [1, 3]: 0.7 ± 0.6 cm^2 | reduction of the ulcer area ([1]; 300 mg/Kg, vs model control group): 60% | Adhesion Degree ([2]; 300 mg/Kg i.g. qd × 6): 0.8 ± 0.7 Points | Colon Length ([2]; 300 mg/Kg i.g. qd × 6): 13.2 ± 2.5 cm | Colon Weight ([2]; 300 mg/Kg i.g. qd × 6): 1776.1 ± 280.7 mg | Ulcer Area ([2]; 300 mg/Kg i.g. qd × 6): 1.6 ± 1.2# cm^2 | growth rate of the body weight (in words) [2]: higher than that in the model control group

COCCCN1C(=O)CCC(N2C(=O)c3cccc(N)c3C2=O)C1=O (stereo not drawn) [Example 26, 4-amino-2-(1-(3-methoxypropyl)-2,6-dioxopiperidin-3-yl)isoindolin-1,3-dione]
Adhesion Degree ([2]; 30 mg/Kg i.g. qd × 6): 0.3 ± 0.5 Points | Colon Length ([2]; 30 mg/Kg i.g. qd × 6): 13.7 ± 1.4 cm | Colon Weight ([2]; 30 mg/Kg i.g. qd × 6): 1628.3 ± 185.5 mg | Ulcer Area ([2]; 30 mg/Kg i.g. qd × 6): 1.1 ± 0.9## cm^2 | therapeutic effects on the model (in words) ([2]; 30 mg/kg i.g. qd × 6): good therapeutic effects | growth rate of the body weight (in words) [2]: higher than that in the model control group | Daily Body Weight (mice; Female mice, Day 1): 18.0 ± 0.7 g | Daily Body Weight (mice; Female mice, Day 2): 21.9 ± 0.3 g | Daily Body Weight (mice; Female mice, Day 3): 22.1 ± 0.5 g | Daily Body Weight (mice; Female mice, Day 4): 22.4 ± 0.2 g | Daily Body Weight (mice; Female mice, Day 5): 22.7 ± 0.3 g | Daily Body Weight (mice; Female mice, Day 6): 22.6 ± 0.3 g | Daily Body Weight (mice; Female mice, Day 7): 22.4 ± 0.2 g | Daily Body Weight (mice; Male mice, Day 1): 18.7 ± 0.8 g | Daily Body Weight (mice; Male mice, Day 2): 23.4 ± 0.5 g | Daily Body Weight (mice; Male mice, Day 3): 25.0 ± 0.6 g | Daily Body Weight (mice; Male mice, Day 4): 26.6 ± 1.4 g | Daily Body Weight (mice; Male mice, Day 5): 27.3 ± 1.3 g | Daily Body Weight (mice; Male mice, Day 6): 28.3 ± 1.3 g | Daily Body Weight (mice; Male mice, Day 7): 28.8 ± 1.4 g
